Columns and labels:
PA14 biofilms = assay: Biofilm assay on glass coverslips, GFP-labelled PA14; type: cell-based, Pseudomonas aeruginosa
Procedure: (§1) One of the clinical challenges of P. aeruginosa infections is the difficulty associated with the effective treatment of biofilms due to their high resistance to antibiotics. […] The effect of Ia, with or without tobramycin, on PA14 and PAO1-L biofilms grown on glass coverslips, was determined. […] The experiment was performed using green fluorescent labelled (GFP)-labelled PAO1-L and PA14 strains, grown under four different conditions: (i) no treatment (control); (ii) compound Ia at 8 µM in PA14 and 34 µM in PAO1-L (concentrations equal to 3× IC50); (iii) tobramycin at 100 µg/mL; (iv) Ia and tobramycin, at the same concentrations as (ii) and (iii).
(§2) Biofilms were cultivated on borosilicate glass coverslips in petri dishes. P. aeruginosa strains, PAO1-L and PA14, were labelled by transformation with plasmid pMMG, which constitutively expresses GFP from the Ptac promoter. Labelled strains were grown at 37 °C, for 16 h, in 2 mL RPMI-1640 (Lonza, Slough, UK), supplemented with 20 mM D-glucose (Sigma–Aldrich, Dorset, UK) and 2 µM FeCl3 (Sigma–Aldrich, Dorset, UK). Cultures were diluted 1:100 in fresh medium and allowed to grow for a further 4 h, or until an OD600 of 0.5 was reached. The mid-logarithmic cultures were diluted to an OD600 of 0.01 in 25 mL RPMI, supplemented with glucose and FeCl3, and inoculated into petri dishes containing UV sterilised borosilicate glass coverslips (22 × 22 mm, thickness no1) (VWR, Lutterworth, UK). Bacterial cells were seeded at 37 °C under static conditions for 1.5 h, and compound Ia was added to the culture at a concentration of 34 µM for P. aeruginosa PAO1-L and 8 µM for PA14 before dishes were moved to a shaker at 60 rpm and 37 °C for 15 h to form mature biofilms. Tobramycin and propidium iodide were added to the 15 h-old cultures at concentrations of 100 µg/mL and 2 µM, respectively, followed by further incubation for 4 h. Coverslips were examined under a Laser Scanning Fluorescent Microscope (LSM2, Zeiss, Oberkochen, Germany). Biofilms were visualised using egfp mode at an excitation wavelength of 488nm. Imaging was carried out using Zen 2011 imaging software (Zeiss, Oberkochen, Germany). A total of 5 Z-stacked images were collected per coverslip. Sampling was conducted at random from the central portion of each coverslip. Biomass was calculated using Image J (NIH, Bethesda, MD, USA) and Comstat 2.1. Software package (www.comstat.dk, lyngby, Denmark).

PAO1-L biofilms = assay: Biofilm assay on glass coverslips, GFP-labelled PAO1-L; type: cell-based, Pseudomonas aeruginosa
Procedure: as §1, §2

[1] = Ia 8 µM, tobramycin 100 µg/mL for 4 h
[2] = Ia 34 µM, tobramycin 100 µg/mL for 4 h

O=CN1N=C(c2ccccc2)CC1c1cccc(Nc2ccnc3cc(Cl)ccc23)c1 (stereo not drawn) [Ia]
Sensitisation of biofilm to tobramycin / effect of combined treatment, PA14 (PA14 biofilms; Ia 8 µM plus tobramycin 100 µg/mL for 4 h): sensitized the biofilm to tobramycin | Effect on biofilm biomass, PA14 (PA14 biofilms; [1]): reducing biomass | Effect on cell viability in biofilm (propidium iodide), PA14 (PA14 biofilms; [1]): little impact on cell viability | Sensitisation of biofilm to tobramycin / effect of combined treatment, PAO1-L (PAO1-L biofilms; Ia 34 µM plus tobramycin 100 µg/mL for 4 h): sensitized the biofilm to tobramycin | Effect on biofilm biomass, PAO1-L (PAO1-L biofilms; [2]): reducing biomass | Effect on cell viability in biofilm (propidium iodide), PAO1-L (PAO1-L biofilms; [2]): little impact on cell viability

— article PMC6017655, “In Silico and in Vitro-Guided Identification of Inhibitors of Alkylquinolone-Dependent Quorum Sensing in Pseudomonas aeruginosa” (Molecules : A Journal of Synthetic Chemistry and Natural …, 2018)
